Reference: US7504522B2, “Azetidinecarboxamide derivatives and their use in the treatment of cb1 receptor mediated disorders” (Vernalis Research Limited, priority 2003, dated 2009)

Legend:
[1] = molecular target: T1, recombinant human CB1 receptors (Homo sapiens, UniProt P21554); assay: Binding to CB1 receptors; conditions: [^3H]-SR-141716A 1 nM; membranes from HEK293 cells expressing recombinant hCB1; Ki calculated from IC50 by Cheng-Prusoff
T1 construct: expressed in transfected cells; host or cells: HEK293 cells (membranes)
Procedure: The binding of compounds of Formula I to recombinant human CB1 receptors was determined in vitro by standard methods, with reference to the procedure described by Rinaldi-Carmona et al. (Rinaldi-Camona, M., Pialot, F., Congy, C., Redon, E., Barth, F., Bachy, A., Breliere, J. C., Soubre, P., LeFur, G., Life Sci. 1996, 58(15), 1239-1247). Membranes were prepared from HEK293 cells expressing recombinant hCB1 receptors. Binding assays are performed in a total volume of 250 μL, containing [^3H]—SR-141716A (1 nM final concentration), membranes and test compound. Non-specific binding is determined using CP55,940 (10 μM). Serial dilutions are performed starting from test compounds as 10 mM solutions in DMSO. Compounds are tested over the concentration range 10^−10 M to 10^−5 M. Ki values are calculated from IC50 values using the Cheng-Prusoff equation.

male C57B1/6 mice = assay: Blockade of Δ^9-THC induced hypolocomotion in mice; assay type: in vivo; conditions: p.o.; antagonism of reduction in locomotor behaviour induced by 3 mg/kg i.p. Δ^9-THC
Procedure: The in vivo activity of compounds of formula (I) was assayed for ability to antagonise the reduction in locomotor behaviour induced by acute systemic administration of Δ^9-THC in male C57B1/6 mice. The procedure was as follows.
Test compounds are assessed following acute oral or intraperitoneal administration at a dose of 30 mg/kg.
The route of test compound administration, drug volume and injection-test-interval are dependent upon the compounds used. 10 min before testing, a 3 mg/kg dose Δ^9-THC (or vehicle) is administered to mice by the i.p. route. […] The light beams are arranged on a 7 by 4 matrix on a metal grid. 16 grids are connected in series and Perspex boxes, 20 (width)×40 (length)×20 (height) cm, with a flat perforated, Perspex lid are placed in each grid. Mice are placed singly in Perspex boxes and the recording of activity in all 16 boxes starts simultaneously. The mice are left undisturbed to explore the novel activity monitor boxes for 15 minutes while beam breaks are recorded.
Locomotor activity data are subjected to one-way analysis of variance (ANOVA) with drug treatment as a between-subjects factor. […] Significant differences between the vehicle/Δ^9-THC group and Test compound/Δ^9-THC groups are assessed by Newman-Keuls test. All statistical analyses were performed using Statistica Software, Version 6.0 (Statsoft Inc.) and Microsoft Excel 7.0 (Microsoft Corp.).

[2] = tested on: male food-deprived Lister-hooded rats; assay: Regulation of feeding behaviour (food consumption); assay type: in vivo; conditions: p.o.; acute administration; food consumption after 18-hour food withdrawal
Procedure: The in vivo activity of compounds of formula (I) was assayed for ability to regulate feeding behaviour by measuring food consumption in male food-deprived Lister-hooded rats as follows.
Test compounds are assessed following acute administration.
The anorectic drug sibutramine, or the reference CB1 receptor antagonist, SR141716A, normally serves as a positive control. The route of drug administration, drug volume and injection-test-interval are dependent upon the compounds used. The injection-test-interval is the time between dosing and food re-presentation. Typically, animals are fasted such that at the time of food re-presentation food has been withdrawn for an 18-hour period. Food consumption is assayed at pre-determined time points (typically 1, 2 and 4 hours after administration). Food intake data are subjected to one-way analysis of variance (ANOVA) with drug as a between-subjects factor. […] All statistical analyses were performed using Statistica Software, Version 6.0 (Statsoft Inc.) and Microsoft Excel 7.0 (Microsoft Corp.).

T1 sequence (P21554 whole entry): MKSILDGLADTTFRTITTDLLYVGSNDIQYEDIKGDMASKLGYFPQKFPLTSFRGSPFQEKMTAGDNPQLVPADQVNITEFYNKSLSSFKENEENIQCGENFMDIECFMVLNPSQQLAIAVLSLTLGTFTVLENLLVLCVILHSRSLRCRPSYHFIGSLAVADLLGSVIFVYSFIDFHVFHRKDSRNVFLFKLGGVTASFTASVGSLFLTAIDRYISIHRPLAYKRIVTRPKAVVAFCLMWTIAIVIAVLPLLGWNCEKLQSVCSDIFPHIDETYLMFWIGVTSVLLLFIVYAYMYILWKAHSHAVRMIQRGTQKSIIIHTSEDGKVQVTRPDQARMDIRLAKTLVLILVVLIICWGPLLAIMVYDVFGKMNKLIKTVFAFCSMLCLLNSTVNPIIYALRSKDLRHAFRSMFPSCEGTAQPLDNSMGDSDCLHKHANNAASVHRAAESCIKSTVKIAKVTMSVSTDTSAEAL

SMILES	Ki [1]	Active dose (mg/kg), route (male C57B1/6 mice)	M.E.D (mg/kg), route [2]
O=C(NC12CC3CC(CC(C3)C1)C2)N1CC(OC(c2ccc(Cl)cc2)c2ccc(Cl)cc2)C1 [Example 30, 3-(4,4′-dichlorobenzhydryloxy)-N-(1-adamantyl)azetidine-1-carboxamide]	19 nM	–	–
CC(C)(C)NC(=O)N1CC(OC(c2ccc(Cl)cc2)c2ccccc2Cl)C1 (centres unmarked) [Example 4, 3-(2,4′-dichlorobenzhydryloxy)-N-(tert-butyl)azetidine-1-carboxamide]	4.5 nM	30, p.o. mg/kg	30, p.o. mg/kg
CC(C)(C)NC(=O)N1CC(OC(c2ccc(Br)cc2F)c2ccccc2C(F)(F)F)C1 (centres unmarked) [Example 94, 3-[2-(trifluoromethyl)-2′-fluoro-4′-bromobenzhydryloxy]-N-(tert-butyl)azetidine-1-carboxamide]	1.3 nM	30, p.o. mg/kg	10, p.o. mg/kg
CC(C)(C)NC(=O)N1CC(OC(c2ccc(Cl)cc2)c2ccc(Cl)cc2Cl)C1 (centres unmarked) [Example 1, 3-(2,4,4′-trichlorobenzhydryloxy)-N-(tert-butyl)azetidine-1-carboxamide]	4.7 nM	30, p.o. mg/kg	30, p.o. mg/kg
CC(C)(C)NC(=O)N1CC(OC(c2ccc(Cl)cc2)c2ccc(Cl)cc2)C1 [Example 28, 3-(4,4′-dichlorobenzhydryloxy)-N-(tert-butyl)azetidine-1-carboxamide]	80 nM	–	–

More lines, main results first:

Ki [1]	SMILES	Active dose (mg/kg), route (male C57B1/6 mice)	M.E.D (mg/kg), route [2]
0.6 nM	CC(C)(C)NC(=O)N1CC(OC(c2ccc(Cl)cc2)c2ccccc2C(F)(F)F)C1 (single isomer, unassigned) [Example 139, 3-[(R*)-2-(trifluoromethyl)-4′-chlorobenzhydryloxy]-N-(tert-butyl)-azetidine-1-carboxamide]	–	1, p.o. mg/kg
27 nM	CC(C)(C)NC(=O)N1CC(OC(c2ccc(S(C)(=O)=O)cc2)c2ccccc2C(F)(F)F)C1 (single isomer, unassigned) [Example 140, 3-[(S*)-2-(trifluoromethyl)-4′-(methylsulphonyl)benzhydryloxy]-N-(tert-butyl)azetidine-1-carboxamide]	–	–
2.3 nM	CC(C)(C)NC(=O)N1CC(OC(c2ccc(Cl)cc2)c2ccccc2C(F)(F)F)C1 (racemic) [Example 81, 3-[2-(trifluoromethyl)-4′-chlorobenzhydryloxy]-N-(tert-butyl)azetidine-1-carboxamide]	30, p.o. mg/kg	3, p.o. mg/kg
